Reference: PubChem BioAssay AID2305 (GlaxoSmithKline (GSK), 2010)
Where “and” joins values, the source holds several entries; their conditions need not be identical. Identical values can stand only once.

test system: P. falciparum 3D7 growth, pLDH absorbance; test: blood-stage malaria parasite growth potency – strain 3D7, dose response (AID 2305)

Row | Structure (SMILES) | IC50
1 | O=C(Nc1cccc(CN2CCCN(Cc3ccccc3)CC2)c1)c1cc2ccccc2s1 | 1200 nM
2 | CN1CCC(NCc2ccc(-c3cnc(NCc4ccccc4)nc3)cc2)CC1 | 830 nM
3 | COc1cccc2cc(C(=O)N[C@@H](CC(C)C)C(=O)N[C@H](/C=N/N(C)C(=O)OC(C)(C)C)CC(=O)OC(C)(C)C)oc12 | 650 nM
4 | CN1CCN(S(=O)(=O)c2ccc3nccc(Nc4ccc(Oc5ccccc5)cc4)c3c2)CC1 | 820 nM
5 | Cc1nc2ccc(NC(=O)c3cc(S(=O)(=O)N(C)C)ccc3Cl)cc2s1 | 820 nM
6 | Cc1cc(NC(=O)CCN2CCN(c3cccc(Cl)c3Cl)CC2)ccc1N1CCN(C(C)C)CC1 | 850 nM
7 | Cn1nc(C(F)(F)F)cc1-c1ccc(C(=O)Nc2ccc3c(c2)CNCC3(C)C)s1 | 1010 nM
8 | c1ccc(-c2ccc(CNCc3ccc(-c4cccc(-c5nc6ccccc6[nH]5)c4)cc3)s2)nc1 | 400 nM
9 | CS(=O)(=O)c1cc2c(Nc3ccc(N4CCOCC4)cc3)c(C(N)=O)cnc2cc1Br | 250 nM
10 | O=C(Nc1nc2ccc(Cl)cc2s1)c1csnn1 | 790 nM
11 | CC(=O)Nc1cccc(-c2cnc(N)c3cc(-c4ccc5c(c4)OCO5)ccc23)c1 | 490 nM
12 | Cc1cccc(C(=O)Nc2ccnc(N(C)C3CCN(CC(C)C)CC3)c2)c1 | 870 nM
13 | CCOC(=O)c1ccc(NC(=O)Nc2ccc(Cn3ncc(N4CCCNCC4)c(Cl)c3=O)cc2)cc1 | 440 nM
14 | O=C(NC1CCC(CN2CCC(c3c[nH]c4ccccc34)CC2)CC1)c1cn(Cc2ccccc2)c2ccccc12 (configuration not stated) | 1130 nM
15 | O=C(Nc1ccc(Cn2ncc(N3CCCNCC3)c(Cl)c2=O)cc1)Nc1ccc(C(F)(F)F)cc1 | 730 nM
16 | COc1cc2nc(SCC(C)C)n(CCCn3ccnc3)c(=N)c2cc1OC | 610 nM
17 | COc1ccc(CNCC(C)(C)c2nc(-c3ccc(Cl)c(O)c3)c(-c3ccncc3)[nH]2)cc1 | 360 nM
18 | Cc1cccc2[nH]c(-c3cccc(-c4ccc(NC(=O)Nc5ccsc5)cc4)c3)nc12 | 120 nM
19 | O=C(Nc1ccc(OC2CCN(Cc3ccsc3)C2)c(Cl)c1)c1ccc2ncccc2c1 (configuration not stated) | 970 nM
20 | CCc1ccc(Cc2cnc3nc(N)nc(N)c3c2C)cc1CC | 290 nM
21 | CCc1c(C)nc(-n2nc(C)cc2NC(=O)CC(c2ccccc2)c2ccccc2)[nH]c1=O | 650 nM
22 | N#CC(NC(=O)C=Cc1ccccc1)c1ccccc1 (configuration not stated) | 180 nM
23 | O=C(NC1CCCCC1)N(Cc1cccc(-c2cccc(CNC3CCCC3)c2)c1)C1CCN(Cc2ccccc2)CC1 | 740 nM
24 | CCN(CC)S(=O)(=O)c1ccc(C(=O)Oc2ccccc2N(Cc2ccc(OC)cc2)C2=NS(=O)(=O)c3ccccc32)cc1 | 580 nM
25 | NC(=O)c1cccc(Nc2nccc(Nc3ccc(Oc4c(Cl)cccc4Cl)c(Cl)c3)n2)c1 | 870 nM

Row | Structure (SMILES) | IC50
26 | COC(=O)/C=C/c1ccc(CC(C)NCC(O)c2cccc(Cl)c2)cc1 (configuration not stated) | 750 nM
27 | COc1ccc(-c2cc(-c3nc4ccc(C(=O)N5CCOCC5)cc4[nH]3)c(=O)n(C)c2)cc1OC | 860 nM
28 | Cc1cccc2[nH]c(-c3cccc(-c4cccc(NC(=O)c5ccoc5)c4)c3)nc12 | 220 nM
29 | COc1cc(F)c2ncc(Cl)c(CCN3CCC(NCc4ccc5c(c4)NC(=O)CO5)CC3)c2c1 | 230 nM
30 | c1ccc(CN2CCc3cc4nccc(N5CCNCC5)c4cc32)cc1 | 400 nM
31 | Cc1cccc(-c2ccc3c(c2)CC(NCc2cccc(-n4ccnc4)c2)C3)c1 (configuration not stated) | 870 nM
32 | CSC1=NC(=Nc2ccccc2C)C2(CCC(C(C)(C)C)CC2)N1c1ccccc1Cl (configuration not stated) | 800 nM
33 | CNc1ccc(CNCc2ccc(-c3ccc(-c4nc5ccc(C(F)(F)F)cc5[nH]4)cc3)cc2)cc1 | 170 nM
34 | C=Cc1ccccc1C1(O)CCN(CCCCNC(=O)c2ccc(-c3ccc(C#N)cc3)cc2)CC1 | 520 nM
35 | Cc1nc(-c2cccc(Nc3nccc(NCC(O)c4cccc(F)c4)n3)c2)cs1 (configuration not stated) | 700 nM
36 | CN(C(=O)Nc1ccc(C(F)(F)F)cc1)C1CCN(CCCCCNC(=O)/C=C/c2ccc(Cl)c(Cl)c2)CC1 | 330 nM
37 | Cn1c(Sc2ncnc3sccc23)nc2ccccc21 | 190 nM
38 | CCCC(C)Nc1nc(C)cc(N[C@@H](CC(C)C)C(=O)Nc2ccc(OC)cc2)n1 (some centres not stated) | 870 nM
39 | COc1ccc(-c2cnc3ccc(NCc4ccc(S(N)(=O)=O)cc4)nn23)cc1 | 800 nM
40 | COc1ccccc1Nc1nc(C)cc(NCc2ccc(-c3c(C)noc3C)cc2)n1 | 870 nM
41 | COc1ccc(CNCc2cccc(-c3cccc(-c4nc5ccc(C(F)(F)F)cc5[nH]4)c3)c2)cc1 | 200 nM
42 | COc1cccc(CC(=O)N2CCC(n3c(C)nc4ccc(F)cc43)CC2)c1 | 910 nM
43 | CCCCn1c(=N)c(C(=O)NCc2cccnc2)cc2c(=O)n3cccc(C)c3nc21 | 740 nM
44 | O=C(NCc1ccc(Cl)c(Cl)c1)c1ccc(C2CCN(Cc3ccc4nc[nH]c4c3)CC2)cc1 | 960 nM
45 | COc1cccc(CNC(=O)c2ccnc(-c3cccc(CN(C)C4CCN(C)CC4)c3)c2)c1 | 830 nM
46 | COc1cc2nc(N3CCC(CNC(=O)c4ccc(-c5ccc(C(=O)N(C)C)cc5O)cc4)CC3)nc(N)c2cc1OC | 280 nM
47 | Cc1noc(-c2cccs2)c1C(=O)NCCc1cccc(Cl)c1 | 460 nM
48 | COc1ccc(C(C(=O)NC2CCN(C[C@H](O)c3ccnc4ccc(OC)cc34)CC2)N2CCN(c3ccc(Cl)c(Cl)c3)CC2)cc1 (some centres not stated) | 200 nM
49 | Cc1cc(Nc2ccc(C(C)(C)C)cc2)c2[nH]ncc2n1 | 1160 nM
50 | COc1cc2c(=O)c(Cc3ccc(Cl)cc3)c(C)[nH]c2cc1F | 1160 nM

Row | Structure (SMILES) | IC50
51 | Cc1ccc2cc(NCCCCCCCCON3C(N)=NC(N)=NC34CCCCC4)ccc2n1 | 160 nM
52 | c1ccc(N2CCN(c3cc(-c4cccnc4)nc(-c4ccncc4)n3)CC2)nc1 | 760 nM
53 | FC(F)(F)COc1ccc(CNCCCCCCNCc2ccc(OCC(F)(F)F)c3ccccc23)c2ccccc12 | 400 nM
54 | CC(C)c1ccc(CN2CCC(CNC(=O)c3cc(-c4ccccc4F)cs3)C2)cc1 (configuration not stated) | 990 nM
55 | O=C(Nc1cccc(C(F)(F)F)c1)NC1CCN(c2ccnc3ccccc23)C1 (configuration not stated) | 290 nM
56 | N#Cc1ccc(N[C@@H](CC2CCCCC2)C(=O)N[C@@H]2CCCc3ccccc32)c2ccccc12 | 730 nM
57 | O=C(/C=C/c1ccc2ccccc2c1)NC1CCC(CN2CCC(c3c[nH]c4ccccc34)CC2)CC1 (configuration not stated) | 730 nM
58 | CC(C)Oc1cc2c(cc1NS(=O)(=O)c1ccc(-c3ccc(Cl)cc3)cc1F)CCN(C)CC2 | 920 nM
59 | CCCC(C)NC(=O)[C@H](CC1CCCCC1)NC(=O)c1ccc(O)c(-c2cccc(C(F)(F)F)c2)c1 (some centres not stated) | 530 nM
60 | COc1ccc(-c2ccc(CNCc3ccsc3)cc2)cc1S(=O)(=O)NCCN1CCCC1 | 790 nM
61 | COc1cc(Cc2cnc(N)nc2N)cc(OCCCCC2SC(=O)NC2=O)c1Br (configuration not stated) | 120 nM
62 | N#Cc1cccc(NC(=O)Nc2cccc(-c3cccc(-c4nc5ccc(F)cc5[nH]4)c3)c2)c1 | 230 nM
63 | CCOc1cc(CC)ccc1C1CCN(CCN2CCC(CNC(=O)c3ccc(-c4ccc(C#N)cc4)cc3)CC2)CC1 | 710 nM
64 | Cc1cc(N[C@@H](Cc2ccccc2)C(=O)NCc2cccs2)nc(NCC2CCCCC2)n1 | 990 nM
65 | O=C(c1ccc(-c2cccc(-c3nc4ccc(C(F)(F)F)cc4[nH]3)c2)cc1)N1CCCCC1CN1CCC(O)C1 (configuration not stated) | 650 nM
66 | CCNc1cc(C(=O)N[C@@H](Cc2ccccc2)[C@H](O)CNC(C)(C)CSCC(C)C)cc(N2CCCC2=O)c1 | 260 nM
67 | Cc1ccc(OCC2CCN(c3ncc(C(=O)NCCCN4CCCC4=O)cc3Cl)CC2)cc1 | 1260 nM
68 | Cc1cccc(Nc2c(-c3cc(Br)ccc3O)nc3ncccn23)c1 | 210 nM
69 | COCCn1c(Sc2ccc(C#N)c([N+](=O)[O-])c2)nnc1-c1ccc(N(C)C)cc1 | 1030 nM
70 | CCCCCCNc1cc(C)nc2ccc(OC)cc12 | 550 nM
71 | CCCCN(CCCC)CCOc1cc2c(cc1OC)CCN2C(=O)/C=C/c1ccccc1Cl | 1180 nM
72 | CN1CCN(Cc2cccc(-c3ccc4c(Nc5cc(O)c(Cl)cc5F)ccnc4c3)c2)CC1 | 770 nM
73 | O=C(NC1CCN(Cc2ccc(Cl)cc2)CC1)c1cn(-c2ccccc2)nc1-c1cccnc1 | 970 nM
74 | CCCCCCNc1cc(C)nc(/N=C(\N)Nc2cccc(C(F)(F)F)c2)n1 | 740 nM
75 | Cc1cc2c(NC(=O)NC3CCN(CCc4ccccc4Cl)CC3)cccc2cn1 | 390 nM

Row | Structure (SMILES) | IC50
76 | O=C(Nc1ccc(O)c(-c2nc3ccccc3[nH]2)c1)c1ccc([N+](=O)[O-])cc1 | 320 nM
77 | Cn1c(=O)c(-c2c(Cl)cccc2Cl)cc2cnc(Nc3ccc(N4CCOCC4)cc3)nc21 | 160 nM
78 | Cn1nccc1C(=O)NCCNCc1cccc(-c2ccc(-c3nc4ccc(C(F)(F)F)cc4[nH]3)s2)c1 | 150 nM
79 | CC(=O)Nc1ccc2[nH]cc(C3CCN(CC4CCC(NC(=O)/C=C/c5ccc(Cl)c(Cl)c5)CC4)CC3)c2c1 (configuration not stated) | 440 nM and 720 nM
80 | COc1cc(NCC2(CNCc3cn(Cc4ccccc4)c4ccccc34)CCCCC2)nc2ccccc12 | 950 nM
81 | Cc1cc(NCCc2ccccc2)nc(/N=C(\N)Nc2cccc(Cl)c2)n1 | 180 nM
82 | NOCCCOc1ccccc1 | 320 nM
83 | CCc1ccc(CN2CCC(CN(C(=O)c3ccccc3)c3ccc(Cl)cc3)CC2)cc1 | 990 nM
84 | O=C(CN1CCC2(CCC1=O)CC(=O)c1ccccc1O2)NCCN1CCOCC1 (configuration not stated) | 220 nM
85 | Cc1ccc(NC(=O)NCCCCCN2CCC(c3c[nH]c4ccccc34)CC2)cc1I | 810 nM
86 | CN(c1cc(NC(=O)c2ccc(F)cc2)ccn1)C1CCN(Cc2cccc(O)c2)CC1 | 920 nM
87 | O=C(/C=C/c1ccc(Cl)c(Cl)c1)NCCCCCN1CCCC(CNC(=O)/C=C/c2ccccc2)C1 (configuration not stated) | 790 nM
88 | COc1cc(Nc2nc(N)n(C(=O)c3ccc4c(c3)OCO4)n2)cc(OC)c1OC | 1130 nM
89 | Oc1c(C(Nc2ccccn2)c2ccc(Cl)cc2Cl)ccc2cccnc12 (configuration not stated) | 890 nM
90 | O=C(N[C@@H](CC1CCCCC1)C(=O)NC1CC1)c1ccc(O)c(-c2cccc(C(F)(F)F)c2)c1 | 770 nM
91 | COc1ccc2nccc(N3CCC(CCNCc4ccc5c(n4)NC(=O)CO5)CC3)c2c1 | 700 nM
92 | O[C@@H](c1cccc(OCc2ccccc2)c1)[C@@H]1CN(CCc2ccccc2)CC[C@@]1(O)c1ccccc1 | 220 nM
93 | Cc1cccc2[nH]c(-c3ccc(-c4cccc(NC(=O)Nc5ccc(Cl)c(Cl)c5)c4)s3)nc12 | 590 nM
94 | Cc1cc(N2CCCC2)nc(Nc2ccc(NC(=O)c3ccc(Br)o3)cc2)n1 | 620 nM
95 | COC(=O)c1ccc(CC(C)NCC(O)c2ccc(F)c(Cl)c2)cc1 (configuration not stated) | 860 nM
96 | COc1cc2c(cc1NC(=O)CN1CCN(C(=O)c3ccco3)CC1)oc1ccccc12 | 420 nM
97 | COc1nc2c(CCN3CCC(NCc4ccc5c(c4)NC(=O)CO5)CC3)c(Cl)cnc2cc1F | 770 nM
